Data set [1] relates to retinal ganglion cell axons. As to the kind of experiment: Protection of retinal ganglion cell axons from degeneration 14 days after optic nerve transection (Table V). The data set is classed as in vivo. Particulars: ± SEM. The source says: Efficacy of representative compounds from different immunophilin ligand series in protecting retinal ganglion cell axons from degeneration following optic nerve transection is set forth in Table V.

Data set [2] is described as follows: Clearance (Table V comments). The data set is classed as in vitro ADME.
The target in data set [3] is FKBP12 (Homo sapiens, UniProt P62942). As to the kind of experiment: Ki test procedure: inhibition of peptidyl-prolyl isomerase (rotamase) activity, chymotrypsin-coupled assay. The data set is classed as biochemical. The source says:
The inhibition of the prolyl peptidyl cis-trans isomerase activity of FKBP may be measured as an indicator of this affinity. Inhibition of the peptidyl-prolyl isomerase (rotamase) activity of the compounds used in the inventive methods and pharmaceutical compositions can be evaluated by known methods described in the literature (Harding et al., Nature, 1989, 341:758-760; Holt et al. J. Am. Chem. Soc., 115:9923-9938). […] The cis-trans isomerization of an alanine-proline bond in a model substrate, N-succinyl-[…]-nitroanilide, is monitored spectrophotometrically in a chymotrypsin-coupled assay, which releases para-nitroanilide from the trans form of the substrate. The inhibition of this reaction caused by the addition of different concentrations of inhibitor is determined, and the data is analyzed as a change in first-order rate constant as a function of inhibitor concentration to yield the apparent Ki values. […] The reaction is initiated by the addition of […] of substrate (succinyl-[…]-nitroanilide, 5 mg/mL in 2.35 mM LiCl in trifluoroethanol). The absorbance at 390 nm versus time is monitored for 90 seconds using a spectrophotometer and the rate constants are determined from the absorbance versus time data files.

Data set [4] concerns retinal ganglion cells. As to the kind of experiment: Example 13: optic nerve transection, 28 days treatment, sacrifice 90 days after transection. Particulars: 10 mg/kg/day s.c. for 28 days. The data set is classed as in vivo, Sprague Dawley rats.
Excerpt: Retinal ganglion cells in adult male Sprague Dawley rats were retrogradely labeled by fluorogold injection in the LGNd and four days later the optic nerves were transected 5 mm behind the globe. […] All experimental animals and controls were sacrificed 90 days after transection.
The test system of data set [5] is retinal ganglion cells and optic nerve axons. As to the kind of experiment: Optic nerve transection, 14 or 28 day treatment, evaluated 90 days after transection. The data set is classed as in vivo, Sprague Dawley rats. Particulars: for Proximal optic nerve myelin basic protein Density: % areal coverage of optic nerve cross section, ± SEM; for Distal optic nerve: shrinkage of cross sectional area: compared to sham control. The text has this: All eyes and optic nerves stumps were removed.

Data set [6] has as its system streptozotocin-induced diabetic rat. As to the kind of experiment: Streptozotocin-induced diabetic sensory neuropathy, hot plate and tail flick. The data set is classed as in vivo, Male Wistar rats. As to conditions: lesioned animals treated for 6 weeks at 10 mg/kg s.c. As to the method: The procedure involved using Male Wistar rats which were given a single injection of streptozotocin (65 mg/kg i.v.). Blood glucose levels were determined weekly for the first three weeks and on the last week of the experiment. Animals were evaluated weekly for signs of sensory neuropathy using the conventional hot plate and tail flick apparatus test procedures.

The mark [7] stands for this setting: apparent Ki, Table C, read-out: Ki.
Where [8] appears, read: Table V comments, read-out: Ki rotamase.

Read-outs that look alike come from different tables or passages of the source. Marks after values point to notes of the source that are not given here.

Sequence of FKBP12 (P62942 whole entry, species assumed): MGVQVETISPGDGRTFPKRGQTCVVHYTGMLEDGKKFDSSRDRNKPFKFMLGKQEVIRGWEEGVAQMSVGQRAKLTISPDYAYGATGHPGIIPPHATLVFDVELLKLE

Turning to `CCC(C)(C)C(=O)C(=O)N1CCC[C@H]1C(=O)CCCCc1cccnc1` [J], the “RT97 + RGC axon density 14 days after ON transection (% ON axons rescued)” value in data set [1] is given as 15.8% ± 4.8% SEM.

In turn, `CCC(C)(C)C(=O)C(=O)N1CCCC[C@H]1C(=O)SCCC(c1ccccc1)c1ccccc1` [Compound K] came in with a Clearance in data set [2] of 4.5 µL/min. In addition, in data set [1], the “RT97 + RGC axon density 14 days after ON transection (% ON axons rescued)” value is listed as 13.0% ± 4.2% SEM.

With `CCC(C)(C)C(=O)C(=O)N1CCCC[C@H]1C(N)=O` [H], the “RT97 + RGC axon density 14 days after ON transection (% ON axons rescued)” value in data set [1] was 30.3% ± 8.0% SEM. As to `COc1ccc(CCCCOC(=O)C2CCCCN2C(=O)C(=O)c2cc(OC)c(OC)c(OC)c2)cc1` (centres unmarked) [Compound 25], in data set [3] (setting [7]), the Ki is 0.013 µM. `CCC(C)(C)C(=O)C(=O)N1CCC[C@H]1C(=O)OCCCc1cccnc1` [GPI 1046]: the “preservation of axons in the proximal stump (RT97 neurofilament immunohistochemistry)” value in data set [4] is on record as “preserved the axons of virtually all protected neurons”. For the same molecule, in data set [5] (ONT/14 days GPI 1046), the “Proximal optic nerve myelin basic protein Density” value is on record as “did not alter the pattern of myelin degeneration” and the “Distal optic nerve: shrinkage of cross sectional area” value was “did not protect against shrinkage of the distal stump”. Also, the “Distal optic nerve myelin basic protein Density: myelin loss” value in data set [5] (ONT/14 days GPI 1046, cross sectional area multiplied by myelin density) is on record as “slightly increase the density,of myelin”. Also, the “RGC Counts” value in data set [5] (ONT/28 days GPI 1046, 10 mg/kg/day sc, 90 days after transection, mean density of Fluoro-gold labeled RGC in 400 μm × 400 μm gridfields) is 67.9 +. In addition, in data set [5] (ONT/28 days GPI 1046), the “Proximal optic nerve myelin basic protein Density” value was “dramatic preservation of the fascicular staining pattern” and the “Distal optic nerve: shrinkage of cross sectional area” value is given as “prevented cross sectional shrinkage”. Besides, in data set [5] (ONT/28 days GPI 1046, calculated by multiplying axonal density by ON area), the “ON axon Count” value is recorded as 22.861*. Besides, in data set [5] (ONT/28 days GPI 1046, cross sectional area multiplied by myelin density), the “Distal optic nerve myelin basic protein Density: myelin preservation” value is 99% myelin % myelin preservation. In addition, the “latency in hot plate and tail flick” value in data set [6] was “improvement in latency”. `CCC(C)(C)C(=O)C(=O)N1CCCC[C@H]1C(=O)OC(CCc1ccccc1)CCc1ccccc1` [E] had a Clearance in data set [2] of 41.8 µL/min. Consider `COC(=O)C(=O)N1CCCCC1C(=O)OCCCC1CCCC1` (centres unmarked) [Compound 19], for which the Ki in data set [3] (setting [7]) was determined as 35 µM. Regarding `COC(=O)C(=O)N1CCCCC1C(=O)OCCCC1CCCCC1` (centres unmarked) [Compound 18], the Ki in data set [3] (setting [7]) turned out to be 20 µM.

Turning to `CCC(C)(C)C(=O)C(=O)N1CCCC[C@H]1C(=O)O` [G], in data set [3] (setting [8]), the Ki was more than 10 µM. Also, the “RT97 + RGC axon density 14 days after ON transection (% ON axons rescued)” value in data set [1] was 34.0% ± 4.8% SEM. Take `CCC(C)(C)C(=O)C(=O)N1CCC[C@H]1C(=O)O` [L]: the Ki in data set [3] (setting [8]) is not below 7.74 µM. Take `O=C(OCCCCc1ccccc1)[C@@H]1CCCCN1S(=O)(=O)Cc1ccccc1` [D]: the “RT97 + RGC axon density 14 days after ON transection (% ON axons rescued)” value in data set [1] is 58.4% ± 6.4% SEM. Consider `O=C(SCCCc1ccccc1)[C@@H]1CCCN1C(=O)NC12CC3CC4(CC(C3)(C4)C1)C2` [Compound B], for which the Ki in data set [3] (setting [8]) came out at 0.149 µM. Moreover, in data set [1], the “RT97 + RGC axon density 14 days after ON transection (% ON axons rescued)” value is given as 100.0% ± 5.2% SEM. As to `CCC(C)(C)C(=O)C(=O)N1CCC[C@H]1C(=O)SCCC(c1ccccc1)c1ccccc1` [M], the “RT97 + RGC axon density 14 days after ON transection (% ON axons rescued)” value in data set [1] is −6.3% + 3.9% SEM. Still for that read-out and setting: to `CCC(C)(C)C(=O)C(=O)N1CCS[C@@H]1C(=O)OCCCc1cccnc1` [F] belongs 55.1% ± 5.9% SEM.

(Values after US6335348B1, “Nitrogen-containing linear and azepinyl/ compositions and uses for vision and memory disorders” (GPI NIL Holdings, Inc., priority 1998, dated 2002).)
